This test deals with HBsAg. The test can be described thus: HBsAg assay: chemiluminescence immunoassay (CLIA) of secreted HBsAg in supernatant of HepG2.2.15 cells. The test is classed as cell-based, HBV. As to conditions: Hepatitis B virus. Here is the method: HepG2.2.15 cells (Acs et al. Proc Natl Acad Sci USA, 84, (1987), 4641-4), a constitutively HBV-expressing cell line were cultured in DMEM+Glutamax-I medium (Invitrogen, Carlsbad, Calif., USA), supplemented with 10% fetal bovine serum (Invitrogen) and G418 (Invitrogen) at a final concentration of 200 mg/L and maintained in 5% CO2 at 37° C.
HepG2.2.15 cells were seeded in duplicate into white, 96-well plates at 1.5×10^4 cells/well. The cells were treated with a three-fold serial dilution series of the compounds in DMSO. The final DMSO concentration in all wells was 1% and DMSO was used as no drug control.
The HBsAg chemiluminescence immunoassay (CLIA) kit (Autobio Diagnostics Co., Zhengzhou, China, Catalog number: CL0310-2) was used to measure the levels of secreted HBV antigens semi-quantitatively. For the detection 50 μL/well culture supernatant was used and HBsAg was quantified using HBsAg chemiluminescence immunoassay (CLIA) kit (Autobio Diagnostics Co., Zhengzhou, China, Catalog number: CL0310-2), 50 μL of the supernatant was transferred to the CLIA assay plate and 50 μL of enzyme conjugate reagent was added into each well. The plates were sealed and gently agitated for 1 hour at room temperature. The supernatant-enzyme-mixture was discarded and wells were washed 6 times with 300 μL of PBS. The residual liquid was removed by plating the CLIA plate […] on absorbent tissue paper. 25 μL of substrates A and B were added to each well. Luminance was measured using a luminometer (Mithras LB 940 Multimode Microplate Reader) after 10 minutes incubation. Dose-response curves were generated and the IC50 value was extrapolated by using the E-WorkBook Suite (ID Business Solutions Ltd., Guildford, UK). The IC50 was defined as the compound concentration (or conditioned media log dilution) at which HBsAg secretion was reduced by 50% compared to the no drug control.
`CN(C(=O)CN1N=C(c2ccc(Cl)cc2)CCC1=O)c1cccc(F)c1` [Example 1-17, 2-[3-(4-Chlorophenyl)-6-oxo-4,5-dihydropyridazin-1-yl]-N-(3-fluorophenyl)-N-methyl-acetamide] came in with an IC50 of 1.17 µM. That is a single-digit micromolar value.

As for `CN(C(=O)CN1N=C(c2ccc(C(F)(F)F)cc2)CCC1=O)c1cccc(C(F)(F)F)c1` [Example 1-41, N-Methyl-2-[6-oxo-3-[4-(trifluoromethyl)phenyl]-4,5-dihydropyridazin-1-yl]-N-[3-(trifluoromethyl)phenyl]acetamide], the IC50 amounted to 0.25 µM.

Take `CN(C(=O)CN1N=C(c2ccc(Cl)c(F)c2)CCC1=O)c1cccc(Cl)c1` [Example 1-24, 2-[3-(4-Chloro-3-fluoro-phenyl)-6-oxo-4,5-dihydropyridazin-1-yl]-N-(3-chlorophenyl)-N-methyl-acetamide]: the IC50 is 0.168 µM.

For `CN(C(=O)Cn1nc(-c2ccc(Cl)cc2)ccc1=O)c1ccc(C(F)(F)F)cc1` [Example 2-1, 2-[3-(4-Chlorophenyl)-6-oxo-pyridazin-1-yl]-N-methyl-N-[4-(trifluoromethyl)phenyl]acetamide], the 50% inhibitory concentration (IC50) amounted to 0.9 µM.

In the case of `CN(C(=O)CN1N=C(c2ccc(C(F)(F)F)cc2)CCC1=O)c1cccc(Cl)c1` [Example 1-39, N-(3-Chlorophenyl)-N-methyl-2-[6-oxo-3-[4-(trifluoromethyl)phenyl]-4,5-dihydropyridazin-1-yl]acetamide], inhibition was half-maximal at 0.369 µM (IC50).

Turning to `CN(C(=O)CN1N=C(c2ccc(Br)cc2)CCC1=O)c1ccc(Cl)cc1` [Example 1-50, 2-[3-(4-Bromophenyl)-6-oxo-4,5-dihydropyridazin-1-yl]-N-(4-chlorophenyl)-N-methyl-acetamide], the IC50 worked out at 1.23 µM.

Regarding `CN(C(=O)CN1N=C(c2ccc(Cl)cc2)CCC1=O)c1cccc(Cl)c1` [Example 1-18, N-(3-Chlorophenyl)-2-[3-(4-chlorophenyl)-6-oxo-4,5-dihydropyridazin-1-yl]-N-methyl-acetamide], half-maximal inhibition (IC50) was put at 0.9 µM.

Regarding `Cc1cc(Cl)ccc1C1=NN(CC(=O)N(C)c2cccc(C(F)(F)F)c2)C(=O)CC1` [Example 1-29, 2-[3-(4-Chloro-2-methylphenyl)-6-oxo-4,5-dihydropyridazin-1-yl]-N-methyl-N-[3-(trifluoromethyl)phenyl]acetamide], the 50% inhibitory concentration (IC50) was found to be 0.483 µM. This IC50 lies about 1.9-fold lower than the previous one.

`CN(C(=O)CN1N=C(c2ccc(F)c(F)c2)CCC1=O)c1cccc(C(F)(F)F)c1` [Example 1-52, 2-[3-(3,4-Difluorophenyl)-6-oxo-4,5-dihydropyridazin-1-yl]-N-methyl-N-[3-(trifluoromethyl)phenyl]acetamide] displayed an IC50 of 0.47 µM.

In turn, `CN(C(=O)CN1N=C(c2ccc(F)cc2F)CCC1=O)c1cccc(C(F)(F)F)c1` [Example 1-31, 2-[3-(2,4-Difluorophenyl)-6-oxo-4,5-dihydropyridazin-1-yl]-N-methyl-N-[3-(trifluoromethyl)phenyl]acetamide] registered an IC50 of 0.83 µM.

The molecule `CN(C(=O)CN1N=C(c2ccc(Cl)cc2)CCC1=O)c1ccc(F)c(C(F)(F)F)c1` [Example 1-2, 2-[3-(4-Chlorophenyl)-6-oxo-4,5-dihydropyridazin-1-yl]-N-[4-fluoro-3-(trifluoromethyl)phenyl]-N-methyl-acetamide] returned an IC50 of 0.74 µM.

For `COc1ccc(N(C)C(=O)CN2N=C(c3ccc(Cl)cc3)CCC2=O)cc1` [Example 1-20, 2-[3-(4-Chlorophenyl)-6-oxo-4,5-dihydropyridazin-1-yl]-N-(4-methoxyphenyl)-N-methyl-acetamide], the IC50 worked out at 5.69 µM.

Molecule `CN(C(=O)CN1N=C(c2ccc(Cl)cc2)CCC1=O)c1ccc(OC(F)(F)F)cc1` [Example 1-16, 2-[3-(4-Chlorophenyl)-6-oxo-4,5-dihydropyridazin-1-yl]-N-methyl-N-[4-(trifluoromethoxy)phenyl]acetamide] showed an IC50 of 3.86 µM. The IC50 values of the last two molecules are within 1.5-fold of each other.

For the molecule `CN(C(=O)CN1N=C(c2ccc(Cl)cc2)CCC1=O)c1ccc(F)cc1` [Example 1-6, 2-[3-(4-Chlorophenyl)-6-oxo-4,5-dihydropyridazin-1-yl]-N-(4-fluorophenyl)-N-methyl-acetamide], half-maximal inhibition (IC50) was put at 3.63 µM.

In turn, `CN(C(=O)CN1N=C(c2ccc(Cl)c(F)c2)CCC1=O)c1ccc(C(F)(F)F)cc1` [Example 1-25, 2-[3-(4-Chloro-3-fluoro-phenyl)-6-oxo-4,5-dihydropyridazin-1-yl]-N-methyl-N-[4-(trifluoromethyl)phenyl]acetamide] registered an IC50 of 0.24 µM. This IC50 is about 15-fold lower than that of the molecule before.

In turn, `CN(C(=O)CN1N=C(c2ccc(Cl)c(F)c2)CCC1=O)c1cccc(F)c1` [Example 1-23, 2-[3-(4-Chloro-3-fluoro-phenyl)-6-oxo-4,5-dihydropyridazin-1-yl]-N-(3-fluorophenyl)-N-methyl-acetamide] registered an IC50 of 0.46 µM.

Take `CN(C(=O)CN1N=C(c2ccc(F)cc2F)CCC1=O)c1ccc(C(F)(F)F)cc1` [Example 1-30, 2-[3-(2,4-Difluorophenyl)-6-oxo-4,5-dihydropyridazin-1-yl]-N-methyl-N-[4-(trifluoromethyl)phenyl]acetamide]: it took 0.402 µM to reach half-maximal inhibition (IC50). The IC50 values of the last two molecules are within 1.5-fold of each other.

For `Cc1cc(C2=NN(CC(=O)N(C)c3ccc(C(F)(F)F)c(F)c3)C(=O)CC2)ccc1F` [Example 1-38, 2-[3-(4-Fluoro-3-methyl-phenyl)-6-oxo-4,5-dihydropyridazin-1-yl]-N-[3-fluoro-4-(trifluoromethyl)phenyl]-N-methyl-acetamide], the IC50 came to 2.35 µM. This IC50 lies about 5.8-fold higher than the previous one.

`Cc1cc(Cl)ccc1C1=NN(CC(=O)N(C)c2cccc(Cl)c2)C(=O)CC1` [Example 1-27, 2-[3-(4-Chloro-2-methyl-phenyl)-6-oxo-4,5-dihydropyridazin-1-yl]-N-(3-chlorophenyl)-N-methyl-acetamide] gave an IC50 of 0.814 µM.

Molecule `CN(C(=O)CN1N=C(c2ccc(F)cc2)CCC1=O)c1ccc(Cl)cc1` [Example 1-48, N-(4-Chlorophenyl)-2-[3-(4-fluorophenyl)-6-oxo-4,5-dihydropyridazin-1-yl]-N-methyl-acetamide] registered an IC50 of 1.88 µM.

As to `CN(C(=O)CN1N=C(c2ccc(C(F)(F)F)cc2)CCC1=O)c1ccc(Cl)cc1` [Example 1-44, N-(4-Chlorophenyl)-N-methyl-2-[6-oxo-3-[4-(trifluoromethyl)phenyl]-4,5-dihydropyridazin-1-yl]acetamide], the IC50 amounted to 0.96 µM. Against the preceding molecule, the IC50 is about 2-fold lower.

The molecule `COc1cccc(N(C)C(=O)CN2N=C(c3ccc(Cl)cc3)CCC2=O)c1` [Example 1-5, 2-[3-(4-Chlorophenyl)-6-oxo-4,5-dihydropyridazin-1-yl]-N-(3-methoxyphenyl)-N-methyl-acetamide] displayed an IC50 of 9.63 µM.

As for `CN(C(=O)Cn1nc(-c2ccc(Cl)cc2)ccc1=O)c1ccc(Cl)cc1` [Example 2-5, N-(4-Chlorophenyl)-2-[3-(4-chlorophenyl)-6-oxo-pyridazin-1-yl]-N-methyl-acetamide], the IC50 is 1.77 µM.

`CN(C(=O)CN1N=C(c2ccc(Cl)cc2)CCC1=O)c1ccc(C(=O)NC2CCCCC2)cc1` [Example 1-15, 4-[[2-[3-(4-Chlorophenyl)-6-oxo-4,5-dihydropyridazin-1-yl]acetyl]-methyl-amino]-N-cyclohexyl-benzamide] gave an IC50 of 5.24 µM.

`CN(C(=O)CN1N=C(c2ccc(Cl)cc2)CCC1=O)c1ccc(Cl)cc1` [Example 1-1, N-(4-Chlorophenyl)-2-[3-(4-chlorophenyl)-6-oxo-4,5-dihydropyridazin-1-yl]-N-methyl-acetamide] came in with a concentration for half-maximal inhibition (IC50) of 1.58 µM.

`CN(C(=O)CN1N=C(c2ccc(Br)cc2)CCC1=O)c1ccccc1` [Example 1-49, 2-[3-(4-Bromophenyl)-6-oxo-4,5-dihydropyridazin-1-yl]-N-methyl-N-phenyl-acetamide] yielded an IC50 of 3.87 µM.

Molecule `CN(C(=O)CN1N=C(c2ccc(C#N)cc2)CCC1=O)c1ccc(Cl)cc1` [Example 1-55, N-(4-Chlorophenyl)-2-[3-(4-cyanophenyl)-6-oxo-4,5-dihydropyridazin-1-yl]-N-methyl-acetamide] returned an IC50 of 3.82 µM.

Molecule `CN(C(=O)CN1N=C(c2ccc(Cl)cc2)CCC1=O)c1ccc(C#N)cc1` [Example 1-10, 2-[3-(4-Chlorophenyl)-6-oxo-4,5-dihydropyridazin-1-yl]-N-(4-cyanophenyl)-N-methyl-acetamide] registered an IC50 of 5.63 µM. This IC50 and that of the molecule before are within 1.5-fold of each other.

With `Cc1ccc(N(C)C(=O)CN2N=C(c3ccc(Cl)cc3)CCC2=O)cc1` [Example 1-7, 2-[3-(4-Chlorophenyl)-6-oxo-4,5-dihydropyridazin-1-yl]-N-methyl-N-(p-tolyl)acetamide], the IC50 was found to be 2.49 µM.

In turn, `CN(C(=O)Cn1nc(-c2c(F)cccc2Cl)ccc1=O)c1ccc(C(F)(F)F)cc1` [Example 2-4, 2-[3-(2-Chloro-6-fluoro-phenyl)-6-oxo-pyridazin-1-yl]-N-methyl-N-[4-(trifluoromethyl)phenyl]acetamide] displayed an IC50 of 4.76 µM.

With `CN(C(=O)CN1N=C(c2ccc(Cl)c(Cl)c2)CCC1=O)c1ccc(Cl)cc1` [Example 1-46, N-(4-Chlorophenyl)-2-[3-(3,4-dichlorophenyl)-6-oxo-4,5-dihydropyridazin-1-yl]-N-methyl-acetamide], the midpoint of inhibition, the IC50, lay at 0.42 µM.

What is called IC50 is the concentration needed to halve the response being measured.
